Experiments:
Settings in all cases: Compound concentration 1.0 uM
[1] = biological target: Neurotensin receptor type 1 (Homo sapiens) (UniProt P30989); assay: RLU of NTSR1 at 1.0 µM in the […] PRESTO-Tango GPCRome screen
[2] = biological target: Adhesion G protein-coupled receptor D2 (Homo sapiens) (UniProt Q7Z7M1); assay: RLU of GPR144 at 1.0 µM in the […] PRESTO-Tango GPCRome screen
[3] = biological target: Pituitary adenylate cyclase-activating polypeptide type I receptor (Homo sapiens) (UniProt P41586); assay: RLU of ADCYAP1R1 at 1.0 µM in the […] PRESTO-Tango GPCRome screen
[4] = biological target: Cysteinyl leukotriene receptor 2 (Homo sapiens) (UniProt Q9NS75); assay: RLU of CYSLTR2 at 1.0 µM in the […] PRESTO-Tango GPCRome screen
[5] = biological target: Somatostatin receptor type 2 (Homo sapiens) (UniProt P30874); assay: RLU of SSTR2 at 1.0 µM in the […] PRESTO-Tango GPCRome screen
[6] = biological target: Neuropeptides B/W receptor type 2 (Homo sapiens) (UniProt P48146); assay: RLU of NPBW2 at 1.0 µM in the […] PRESTO-Tango GPCRome screen
[7] = biological target: G-protein coupled receptor 84 (Homo sapiens) (UniProt Q9NQS5); assay: RLU of GPR84 at 1.0 µM in the […] PRESTO-Tango GPCRome screen
[8] = biological target: C-X-C chemokine receptor type 6 (Homo sapiens) (UniProt O00574); assay: RLU of CXCR6 at 1.0 µM in the […] PRESTO-Tango GPCRome screen
[9] = biological target: Probable G-protein coupled receptor 101 (Homo sapiens) (UniProt Q96P66); assay: RLU of GPR101 at 1.0 µM in the […] PRESTO-Tango GPCRome screen
[10] = biological target: Prolactin-releasing peptide receptor (Homo sapiens) (UniProt P49683); assay: RLU of PRRP at 1.0 µM in the […] PRESTO-Tango GPCRome screen
[11] = biological target: Probable G-protein coupled receptor 153 (Homo sapiens) (UniProt Q6NV75); assay: RLU of GPR153 at 1.0 µM in the […] PRESTO-Tango GPCRome screen
[12] = biological target: Gonadotropin-releasing hormone receptor (Homo sapiens) (UniProt P30968); assay: RLU of GNRHR at 1.0 µM in the […] PRESTO-Tango GPCRome screen
[13] = biological target: Adhesion G protein-coupled receptor F4 (Homo sapiens) (UniProt Q8IZF3); assay: RLU of GPR115 at 1.0 µM in the […] PRESTO-Tango GPCRome screen
[14] = biological target: Probable G-protein coupled receptor 82 (Homo sapiens) (UniProt Q96P67); assay: RLU of GPR82 at 1.0 µM in the […] PRESTO-Tango GPCRome screen
[15] = biological target: Lysophosphatidic acid receptor 2 (Homo sapiens) (UniProt Q9HBW0); assay: RLU of LPAR2 at 1.0 µM in the […] PRESTO-Tango GPCRome screen
[16] = biological target: Neuropeptide Y receptor type 5 (Homo sapiens) (UniProt Q15761); assay: RLU of NPY5R at 1.0 µM in the […] PRESTO-Tango GPCRome screen
[17] = biological target: Growth hormone secretagogue receptor type 1 (Homo sapiens) (UniProt Q92847); assay: RLU of GHSR at 1.0 µM in the […] PRESTO-Tango GPCRome screen
[18] = biological target: Adhesion G-protein coupled receptor F1 (Homo sapiens) (UniProt Q5T601); assay: RLU of GPR110 at 1.0 µM in the […] PRESTO-Tango GPCRome screen
[19] = biological target: Galanin receptor type 3 (Homo sapiens) (UniProt O60755); assay: RLU of GAL3 at 1.0 µM in the […] PRESTO-Tango GPCRome screen
[20] = biological target: Relaxin-3 receptor 2 (Homo sapiens) (UniProt Q8TDU9); assay: RLU of RXFP4 at 1.0 µM in the […] PRESTO-Tango GPCRome screen
[21] = biological target: C-C chemokine receptor type 2 (Homo sapiens) (UniProt P41597); assay: RLU of CCR2 at 1.0 µM in the […] PRESTO-Tango GPCRome screen
[22] = biological target: Cysteinyl leukotriene receptor 1 (Homo sapiens) (UniProt Q9Y271); assay: RLU of CYSLTR1 at 1.0 µM in the […] PRESTO-Tango GPCRome screen
[23] = biological target: P2Y purinoceptor 6 (Homo sapiens) (UniProt Q15077); assay: RLU of P2RY6 at 1.0 µM in the […] PRESTO-Tango GPCRome screen
[24] = biological target: Adhesion G protein-coupled receptor G3 (Homo sapiens) (UniProt Q86Y34); assay: RLU of GPR97 at 1.0 µM in the […] PRESTO-Tango GPCRome screen
[25] = biological target: Histamine H2 receptor (Homo sapiens) (UniProt P25021); assay: RLU of HRH2 at 1.0 µM in the Aequorin PRESTO-Tango GPCRome screen
[26] = biological target: Free fatty acid receptor 4 (Homo sapiens) (UniProt Q5NUL3); assay: RLU of GPR120 at 1.0 µM in the […] PRESTO-Tango GPCRome screen
[27] = biological target: Apelin receptor (Homo sapiens) (UniProt P35414); assay: RLU of APJ at 1.0 µM in the […] PRESTO-Tango GPCRome screen
[28] = biological target: Oxytocin receptor (Homo sapiens) (UniProt P30559); assay: RLU of OXTR at 1.0 µM in the […] PRESTO-Tango GPCRome screen
[29] = biological target: Adenosine receptor A2a (Homo sapiens) (UniProt P29274); assay: RLU of ADORA2A at 1.0 µM in the […] PRESTO-Tango GPCRome screen
[30] = biological target: Mas-related G-protein coupled receptor member X4 (Homo sapiens) (UniProt Q96LA9); assay: RLU of MRGPRX4 at 1.0 µM in the […] PRESTO-Tango GPCRome screen
[31] = biological target: Somatostatin receptor type 1 (Homo sapiens) (UniProt P30872); assay: RLU of SSTR1 at 1.0 µM in the […] PRESTO-Tango GPCRome screen
[32] = biological target: Gastrin/cholecystokinin type B receptor (Homo sapiens) (UniProt P32239); assay: RLU of CCKBR at 1.0 µM in the […] PRESTO-Tango GPCRome screen
[33] = biological target: G-protein coupled receptor 62 (Homo sapiens) (UniProt Q9BZJ7); assay: RLU of GPR62 at 1.0 µM in the […] PRESTO-Tango GPCRome screen
[34] = biological target: Metabotropic glutamate receptor 6 (Homo sapiens) (UniProt O15303); assay: RLU of GRM6 at 1.0 µM in the Aequorin PRESTO-Tango GPCRome screen
[35] = biological target: Thromboxane A2 receptor (Homo sapiens) (UniProt P21731); assay: RLU of TBXA2R at 1.0 µM in the […] PRESTO-Tango GPCRome screen

G-protein coupled receptor 84 (Homo sapiens), sequence (Q9NQS5 whole entry): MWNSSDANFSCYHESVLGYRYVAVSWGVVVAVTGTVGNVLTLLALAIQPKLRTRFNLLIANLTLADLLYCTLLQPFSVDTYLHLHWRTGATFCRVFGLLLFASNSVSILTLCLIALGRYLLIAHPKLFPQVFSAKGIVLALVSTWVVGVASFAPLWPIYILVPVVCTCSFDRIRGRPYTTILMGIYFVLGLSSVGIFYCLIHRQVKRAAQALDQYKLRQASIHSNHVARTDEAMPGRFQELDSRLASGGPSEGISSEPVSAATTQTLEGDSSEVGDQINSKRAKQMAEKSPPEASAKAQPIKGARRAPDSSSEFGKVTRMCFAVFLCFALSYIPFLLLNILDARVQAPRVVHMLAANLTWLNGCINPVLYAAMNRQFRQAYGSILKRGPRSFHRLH
Neuropeptide Y receptor type 5 (Homo sapiens), sequence (Q15761 whole entry): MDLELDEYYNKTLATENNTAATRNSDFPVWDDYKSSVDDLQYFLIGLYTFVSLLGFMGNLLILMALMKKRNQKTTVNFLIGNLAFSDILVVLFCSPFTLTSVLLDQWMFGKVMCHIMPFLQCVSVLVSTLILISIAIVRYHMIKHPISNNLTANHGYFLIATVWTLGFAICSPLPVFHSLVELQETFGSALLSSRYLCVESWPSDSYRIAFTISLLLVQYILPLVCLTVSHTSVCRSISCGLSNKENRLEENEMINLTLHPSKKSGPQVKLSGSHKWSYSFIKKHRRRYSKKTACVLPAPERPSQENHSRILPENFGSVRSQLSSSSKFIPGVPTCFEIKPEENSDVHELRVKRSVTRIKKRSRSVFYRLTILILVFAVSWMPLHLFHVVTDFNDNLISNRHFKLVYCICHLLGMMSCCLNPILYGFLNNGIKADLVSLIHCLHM
Neuropeptides B/W receptor type 2 (Homo sapiens), sequence (P48146 whole entry): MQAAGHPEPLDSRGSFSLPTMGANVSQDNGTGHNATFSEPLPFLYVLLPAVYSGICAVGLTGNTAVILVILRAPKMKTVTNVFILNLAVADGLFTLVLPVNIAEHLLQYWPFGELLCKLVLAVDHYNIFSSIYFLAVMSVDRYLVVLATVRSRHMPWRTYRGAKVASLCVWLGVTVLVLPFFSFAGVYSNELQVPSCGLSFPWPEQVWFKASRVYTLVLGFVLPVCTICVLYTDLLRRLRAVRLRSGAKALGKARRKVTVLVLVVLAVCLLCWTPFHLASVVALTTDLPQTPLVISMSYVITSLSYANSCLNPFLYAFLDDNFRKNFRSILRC
Cysteinyl leukotriene receptor 2 (Homo sapiens), sequence (Q9NS75 whole entry): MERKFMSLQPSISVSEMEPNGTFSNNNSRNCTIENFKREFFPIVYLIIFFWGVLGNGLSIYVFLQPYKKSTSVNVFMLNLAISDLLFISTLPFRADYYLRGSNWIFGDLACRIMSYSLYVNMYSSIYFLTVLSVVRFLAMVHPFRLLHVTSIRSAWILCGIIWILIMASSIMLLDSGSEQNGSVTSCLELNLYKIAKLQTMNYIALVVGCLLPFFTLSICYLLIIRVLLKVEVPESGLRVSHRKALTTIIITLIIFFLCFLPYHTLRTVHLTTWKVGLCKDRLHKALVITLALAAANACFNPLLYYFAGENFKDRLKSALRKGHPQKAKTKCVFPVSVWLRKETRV
Neurotensin receptor type 1 (Homo sapiens), sequence (P30989 whole entry): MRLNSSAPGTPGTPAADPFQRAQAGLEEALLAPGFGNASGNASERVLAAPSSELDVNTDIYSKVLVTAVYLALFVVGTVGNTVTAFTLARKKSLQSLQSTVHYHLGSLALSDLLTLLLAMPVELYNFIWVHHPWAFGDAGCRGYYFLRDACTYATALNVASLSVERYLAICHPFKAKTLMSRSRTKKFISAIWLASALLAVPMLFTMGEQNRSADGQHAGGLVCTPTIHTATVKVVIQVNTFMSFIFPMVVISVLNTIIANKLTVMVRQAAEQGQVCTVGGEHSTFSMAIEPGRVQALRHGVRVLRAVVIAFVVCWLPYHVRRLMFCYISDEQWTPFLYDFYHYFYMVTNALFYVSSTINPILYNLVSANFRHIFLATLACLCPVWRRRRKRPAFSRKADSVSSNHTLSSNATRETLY
C-C chemokine receptor type 2 (Homo sapiens), sequence (P41597 whole entry, looked up): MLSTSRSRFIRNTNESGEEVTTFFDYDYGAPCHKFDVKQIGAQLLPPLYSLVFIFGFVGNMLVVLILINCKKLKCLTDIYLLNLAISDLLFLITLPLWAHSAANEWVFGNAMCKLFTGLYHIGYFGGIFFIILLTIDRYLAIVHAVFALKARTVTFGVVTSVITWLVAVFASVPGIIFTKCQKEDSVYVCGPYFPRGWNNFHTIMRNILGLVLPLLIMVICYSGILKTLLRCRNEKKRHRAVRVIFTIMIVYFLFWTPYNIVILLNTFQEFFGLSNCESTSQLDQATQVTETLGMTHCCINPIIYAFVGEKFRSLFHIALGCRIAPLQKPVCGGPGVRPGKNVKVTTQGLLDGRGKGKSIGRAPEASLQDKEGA
C-X-C chemokine receptor type 6 (Homo sapiens), sequence (O00574 whole entry, looked up): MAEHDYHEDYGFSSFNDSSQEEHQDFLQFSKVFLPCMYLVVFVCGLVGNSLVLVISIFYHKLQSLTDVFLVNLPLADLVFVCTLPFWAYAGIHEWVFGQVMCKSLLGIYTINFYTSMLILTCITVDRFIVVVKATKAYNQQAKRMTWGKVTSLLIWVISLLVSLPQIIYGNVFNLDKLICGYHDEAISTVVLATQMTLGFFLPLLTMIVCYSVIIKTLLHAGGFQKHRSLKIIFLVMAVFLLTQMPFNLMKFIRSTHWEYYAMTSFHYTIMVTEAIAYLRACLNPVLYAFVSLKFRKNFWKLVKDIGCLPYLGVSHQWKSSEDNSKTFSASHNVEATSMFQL
Oxytocin receptor (Homo sapiens), sequence (P30559 whole entry): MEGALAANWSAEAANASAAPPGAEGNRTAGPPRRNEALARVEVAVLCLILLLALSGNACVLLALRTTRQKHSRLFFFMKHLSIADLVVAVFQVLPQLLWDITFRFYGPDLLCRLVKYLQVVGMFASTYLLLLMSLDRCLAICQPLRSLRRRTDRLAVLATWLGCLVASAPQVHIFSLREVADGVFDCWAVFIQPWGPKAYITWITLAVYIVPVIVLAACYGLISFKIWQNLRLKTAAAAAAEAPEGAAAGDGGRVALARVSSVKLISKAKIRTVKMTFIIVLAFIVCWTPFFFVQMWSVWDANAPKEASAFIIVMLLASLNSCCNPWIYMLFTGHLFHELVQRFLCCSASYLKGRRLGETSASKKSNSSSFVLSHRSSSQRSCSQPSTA
Relaxin-3 receptor 2 (Homo sapiens), sequence (Q8TDU9 whole entry): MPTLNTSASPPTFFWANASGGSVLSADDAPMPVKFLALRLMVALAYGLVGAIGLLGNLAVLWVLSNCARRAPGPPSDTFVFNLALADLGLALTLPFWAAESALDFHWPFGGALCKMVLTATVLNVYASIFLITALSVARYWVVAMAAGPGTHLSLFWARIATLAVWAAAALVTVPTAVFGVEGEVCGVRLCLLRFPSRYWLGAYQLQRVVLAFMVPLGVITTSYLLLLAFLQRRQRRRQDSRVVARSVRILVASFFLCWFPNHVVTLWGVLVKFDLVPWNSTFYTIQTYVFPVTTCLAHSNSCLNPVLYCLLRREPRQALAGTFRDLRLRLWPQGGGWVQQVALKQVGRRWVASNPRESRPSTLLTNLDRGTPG
Apelin receptor (Homo sapiens), sequence (P35414 whole entry): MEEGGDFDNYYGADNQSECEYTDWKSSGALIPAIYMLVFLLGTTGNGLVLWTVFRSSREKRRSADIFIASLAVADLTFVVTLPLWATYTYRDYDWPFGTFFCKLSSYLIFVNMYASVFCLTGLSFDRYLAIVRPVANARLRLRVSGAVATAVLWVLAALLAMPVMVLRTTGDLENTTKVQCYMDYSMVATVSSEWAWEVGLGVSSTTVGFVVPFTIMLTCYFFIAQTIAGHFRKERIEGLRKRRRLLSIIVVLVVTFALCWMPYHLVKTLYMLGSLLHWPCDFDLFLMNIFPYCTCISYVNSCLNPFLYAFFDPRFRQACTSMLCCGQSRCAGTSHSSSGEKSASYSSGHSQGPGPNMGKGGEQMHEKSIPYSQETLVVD
Gonadotropin-releasing hormone receptor (Homo sapiens), sequence (P30968 whole entry): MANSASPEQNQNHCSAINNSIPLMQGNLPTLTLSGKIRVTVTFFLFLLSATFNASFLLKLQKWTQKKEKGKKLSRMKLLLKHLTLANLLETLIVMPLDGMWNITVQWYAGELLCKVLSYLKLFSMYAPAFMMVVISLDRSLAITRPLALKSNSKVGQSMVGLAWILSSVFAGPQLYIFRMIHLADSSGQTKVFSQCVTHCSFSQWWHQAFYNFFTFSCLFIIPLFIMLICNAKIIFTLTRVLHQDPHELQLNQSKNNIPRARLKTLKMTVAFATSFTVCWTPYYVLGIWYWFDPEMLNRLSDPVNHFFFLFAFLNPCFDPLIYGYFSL
Somatostatin receptor type 2 (Homo sapiens), sequence (P30874 whole entry): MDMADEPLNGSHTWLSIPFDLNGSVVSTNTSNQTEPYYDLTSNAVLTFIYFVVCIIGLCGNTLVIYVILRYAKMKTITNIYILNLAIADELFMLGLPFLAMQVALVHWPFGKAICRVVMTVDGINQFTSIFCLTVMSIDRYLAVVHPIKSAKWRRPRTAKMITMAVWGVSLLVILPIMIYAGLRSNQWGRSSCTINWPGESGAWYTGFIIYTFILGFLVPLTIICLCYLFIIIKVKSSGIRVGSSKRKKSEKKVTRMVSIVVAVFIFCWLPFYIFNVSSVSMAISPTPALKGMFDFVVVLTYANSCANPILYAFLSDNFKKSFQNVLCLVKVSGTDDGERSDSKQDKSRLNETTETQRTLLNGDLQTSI
Prolactin-releasing peptide receptor (Homo sapiens), sequence (P49683 whole entry): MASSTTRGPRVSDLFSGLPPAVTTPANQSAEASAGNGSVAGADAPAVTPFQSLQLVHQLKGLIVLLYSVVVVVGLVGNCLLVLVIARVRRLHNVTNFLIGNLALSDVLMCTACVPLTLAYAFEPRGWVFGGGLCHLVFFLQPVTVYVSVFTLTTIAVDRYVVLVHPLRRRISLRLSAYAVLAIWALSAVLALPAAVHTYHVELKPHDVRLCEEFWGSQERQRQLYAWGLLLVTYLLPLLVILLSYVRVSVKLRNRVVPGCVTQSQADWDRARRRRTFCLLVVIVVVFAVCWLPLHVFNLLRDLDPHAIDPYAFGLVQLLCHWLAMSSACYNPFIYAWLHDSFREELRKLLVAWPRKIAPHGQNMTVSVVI

- RLU [1]: -1300
- RLU [2]: 917
- RLU [3]: 1630
- RLU [4]: -3190
- RLU [5]: -163
- RLU [6]: -872
- RLU [7]: -3990
- RLU [8]: 761
- RLU [9]: -2170
- RLU [10]: 4140
- RLU [11]: -4690
- RLU [12]: -3090
- RLU [13]: -283
- RLU [14]: -8050
- RLU [15]: -80
- RLU [16]: -14500
- RLU [17]: 1260
- RLU [18]: 9360
- RLU [19]: -1500
- RLU [20]: 68.6
- RLU [21]: 2850
- RLU [22]: 1610
- RLU [23]: -7240
- RLU [24]: 2050
- RLU [25]: 84.8
- RLU [26]: 1030
- RLU [27]: 5300
- RLU [28]: -479
- RLU [29]: 1000
- RLU [30]: 3310
- RLU [31]: -1070
- RLU [32]: 2720
- RLU [33]: 477000
- RLU [34]: -158
- RLU [35]: 233
SMILES: CCCCC(=O)N1CC2(C1)CN(c1ccccc1-c1nnn[nH]1)C2
